# From article PMC12909347, “Disconnect between in vitro and in vivo efficacy of the MPS1 inhibitor NTRC 0066-0 against glioblastoma” (Cellular Oncology, 2026)
# Experiments:
# GBM cells = assay: Incucyte caspase-3/7 apoptosis assay; format: cell-based, human; conditions: three serum-cultured GBM cell lines, increasing concentrations
# Procedure: For the apoptosis assay, cells were plated in a 96-wells plate at low cell densities (500–1000 cells/well) and allowed to adhere overnight under standard culture conditions (37 °C, 5% CO₂). After 24 h, cells were exposed to different concentrations of NTRC0066-0. Apoptosis was measured using the Incucyte® Caspase-3/7 Dye for Apoptosis (Sartorius AG, Göttingen, Germany), which was added at a final concentration of 2.5 µM. As a positive control for the induction of Caspase 3/7-mediated apoptosis, cells were treated with a combination of S63845 and navitoclax (final concentrations 3 µM and 1.5 µM, respectively). Apoptotic cell death was assessed in real time with the Incucyte® S3 system (Sartorius AG). The Incucyte® was configured to capture phase-contrast images using a 10x objective lens. Data were collected and analyzed using the Incucyte® S3 software. Fluorescence signal confluence was quantified and normalized to the total phase-contrast confluence in each well to take variations in cell density into account. Curves were plotted using GraphPad Prism v10.3 (GraphPad Software).
# MRP4 = biological target: T1, MRP4 (Mus musculus, UniProt E9Q236); assay: Brain penetration in Abcb1a/b;Abcg2;Abcc4-/- mice; format: in vivo; conditions: 1 h after 5 mg/kg i.v.
# T1 construct: Abcb1a/b; from tissue; host or cells: blood-brain barrier / brain of FVB mice (Abcb1a/b;Abcg2;Abcc4-/- versus other strains)
# T1 sequence (E9Q236 1-1325): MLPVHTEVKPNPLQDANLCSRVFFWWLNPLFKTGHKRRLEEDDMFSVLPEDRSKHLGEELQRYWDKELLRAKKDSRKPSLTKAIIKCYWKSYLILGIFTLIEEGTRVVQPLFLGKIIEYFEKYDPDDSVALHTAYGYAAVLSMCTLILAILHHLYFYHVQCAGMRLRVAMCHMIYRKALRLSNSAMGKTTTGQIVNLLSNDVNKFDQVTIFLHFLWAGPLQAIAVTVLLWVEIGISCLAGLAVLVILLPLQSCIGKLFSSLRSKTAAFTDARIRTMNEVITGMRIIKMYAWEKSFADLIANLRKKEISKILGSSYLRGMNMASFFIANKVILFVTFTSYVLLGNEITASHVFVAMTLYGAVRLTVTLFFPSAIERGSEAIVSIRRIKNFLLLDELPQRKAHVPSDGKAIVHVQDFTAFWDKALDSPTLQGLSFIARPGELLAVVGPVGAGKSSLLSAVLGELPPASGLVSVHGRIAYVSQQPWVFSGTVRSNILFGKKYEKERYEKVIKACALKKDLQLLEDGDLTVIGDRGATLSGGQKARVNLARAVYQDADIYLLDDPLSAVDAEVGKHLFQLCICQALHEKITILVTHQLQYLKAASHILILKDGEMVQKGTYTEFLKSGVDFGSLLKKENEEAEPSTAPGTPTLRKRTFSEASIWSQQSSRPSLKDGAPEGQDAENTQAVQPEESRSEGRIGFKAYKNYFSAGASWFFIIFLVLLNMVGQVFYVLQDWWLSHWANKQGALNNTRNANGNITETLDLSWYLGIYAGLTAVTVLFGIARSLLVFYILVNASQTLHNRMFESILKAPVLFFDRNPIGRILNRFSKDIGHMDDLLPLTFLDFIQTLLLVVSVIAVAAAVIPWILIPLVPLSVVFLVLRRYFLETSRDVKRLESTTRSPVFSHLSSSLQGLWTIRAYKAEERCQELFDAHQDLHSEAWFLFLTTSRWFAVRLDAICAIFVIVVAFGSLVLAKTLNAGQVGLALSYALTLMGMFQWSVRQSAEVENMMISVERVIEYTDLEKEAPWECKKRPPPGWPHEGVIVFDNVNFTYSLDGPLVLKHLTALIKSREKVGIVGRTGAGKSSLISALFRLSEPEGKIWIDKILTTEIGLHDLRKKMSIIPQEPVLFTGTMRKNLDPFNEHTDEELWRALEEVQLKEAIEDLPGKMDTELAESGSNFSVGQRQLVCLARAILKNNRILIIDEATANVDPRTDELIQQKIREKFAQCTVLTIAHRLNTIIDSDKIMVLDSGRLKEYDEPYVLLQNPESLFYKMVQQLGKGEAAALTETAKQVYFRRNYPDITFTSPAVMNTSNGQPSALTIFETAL
# Procedure: The pharmacokinetics of NTRC 0066-0 were analyzed in wild-type (WT), Abcb1a/b^−/−, Abcg2^−/−, Abcb1a/b^−/−;Abcg2^−/− and Abcb1a/b^−/−;Abcg2^−/−;Abcc4^−/− FVB mice. All knockout mice strains have been developed at the Netherlands Cancer Institute. For i.v. administration, NTRC0066-0 was formulated in DMSO: Cremophor EL: saline (1:1:8 v/v) and injected at a dose of 5 mg/kg. For i.p and oral administration, NTRC0066-0 was administered at 5, 10 or 20 mg/kg as indicated. Serial blood sampling was done by tail vein bleeding at specific time points. At terminal time points, blood was drawn by cardiac puncture followed by tissue collection. Plasma was obtained from whole blood by centrifugation (5 min, 5,000 rpm, 4 °C) and tissues were weighed and homogenized using a FastPrep®-24 (MP-Biomedicals, NY) in 1% (w/v) bovine serum albumin (Sigma-Aldrich) in water.
# NTRC 0066-0 was extracted from in vitro and in vivo samples using liquid–liquid extraction with diethyl ether. Another MPS-1 inhibitor, Compound 5 (Cpd-5), was added to the samples as an internal standard. The dried organic phase was reconstituted in 30% methanol in water (v/v). Samples were measured using an LC-MS/MS system comprising an UltiMate 3000 LC Systems (Dionex, Sunnyvale, CA) and an API 4000 mass spectrometer (Sciex, Framingham, MA). […]
smiles,measurement,setting,value
CCc1cccc(CC)c1NC(=O)c1ccn2c1CCc1cnc(Nc3ccc(N4CCN(C)CC4)cc3OC)nc1-2 [NTRC 0066-0],Induction of apoptosis (caspase 3/7 activation),GBM cells,did not induce apoptosis
same,Brain concentration compared to Abcb1a/b-/- mice,MRP4,did not display further increased
